Results as given in the supplement of paper PMC11127212.

Experiments:
[1] = collision cross section (TWIMS, N2) of ion [M-H]-; higher = larger gas-phase ion cross section; conditions: ionization: ESI negative; LC: HILIC, pH 9.0 ammonium acetate
Experimental: (§1)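 Reference standards (20-100 uM) were separated by HILIC UPLC (BEH HILIC, 45 °C): acidic pH 3.0 ammonium formate/formic acid for ESI+ and basic pH 9.0 ammonium acetate/ammonia for ESI-. They were analysed on a Synapt G2-Si traveling-wave IMS-QTOF with nitrogen drift gas (WH 30 V; WV 800 m/s in ESI+ and 1000 m/s in ESI-).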

[2] = collision cross section (TWIMS, N2) of ion [M+Na]+; higher = larger gas-phase ion cross section; conditions: ionization: ESI positive; LC: HILIC, pH 3.0 ammonium formate
Experimental: as §1, with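 “ESI-). CCS (TWCCSN2, Å2) was calibrated with Major Mix IMS/TOF and LockCCS leucine enkephalin; inter-day RSD was <1%.” for “ESI-).”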

[3] = retention time on BEH HILIC column (20 min gradient, 0.4 mL/min); higher = later elution; conditions: LC: HILIC
Experimental: as §1

[4] = collision cross section (TWIMS, N2) of ion [M+H]+; higher = larger gas-phase ion cross section; conditions: ionization: ESI positive; LC: HILIC, pH 3.0 ammonium formate
Experimental: as §1

[5] = ionization: ESI negative, pH 9.0 ammonium acetate
[6] = ionization: ESI positive, pH 3.0 ammonium formate

SMILES: O=C(O)CC(O)c1cccc(O)c1 (configuration not stated) [3-(3-hydroxyphenyl)-3-hydroxypropanoic acid]
- collision cross section [1]: 138.92 Å²
- collision cross section [2]: 146.99 Å²

SMILES: CC(=O)Oc1ccc(O)cc1 [4-hydroxyphenyl acetate]
- retention time on BEH HILIC column [3, 5]: 0.67 min
- retention time on BEH HILIC column [3, 6]: 0.88 min
- collision cross section [1]: 129.47 Å²
- collision cross section [2]: 138.25 Å²

SMILES: NC(=O)NC1NC(=O)NC1=O (configuration not stated) [Allantoin]
- retention time on BEH HILIC column [3, 5]: 1.8 min
- retention time on BEH HILIC column [3, 6]: 1.56 min
- collision cross section [1]: 126.16 Å²
- collision cross section [2]: 136.32 Å²

SMILES: CCCCCCCCCCCCCCCCCCCC(=O)O [Arachidic acid]
- retention time on BEH HILIC column [3, 5]: 0.73 min
- retention time on BEH HILIC column [3, 6]: 0.79 min
- collision cross section [1]: 193.88 Å²
- collision cross section [2]: 198.31 Å²

SMILES: O[C@H]1[C@H](O)[C@H](O)OC[C@H]1O [D-arabinose]
- retention time on BEH HILIC column [3, 6]: 2.28 min
- collision cross section [2]: 131.78 Å²

SMILES: OC[C@H]1O[C@](O)(CO)[C@@H](O)[C@@H]1O [D-fructose]
- retention time on BEH HILIC column [3, 6]: 3.49 min
- collision cross section [2]: 140.11 Å²

SMILES: OC[C@H]1O[C@H](O)[C@H](O)[C@@H](O)[C@H]1O [D-galactose]
- retention time on BEH HILIC column [3, 6]: 4.2 min
- collision cross section [2]: 138.53 Å²

SMILES: OC[C@H]1O[C@@H](O)[C@H](O)[C@@H](O)[C@@H]1O [D-glucose]
- retention time on BEH HILIC column [3, 6]: 3.88 min
- collision cross section [2]: 143.24 Å²

SMILES: OC[C@@]1(O)OC[C@@H](O)[C@H](O)[C@@H]1O [D-tagalose]
- retention time on BEH HILIC column [3, 6]: 3.02 min
- collision cross section [2]: 136.93 Å²

SMILES: OC1OC[C@@H](O)[C@H](O)[C@H]1O (stereo partly drawn) [D-xylose]
- retention time on BEH HILIC column [3, 6]: 2 min
- collision cross section [2]: 131.78 Å²

SMILES: OC[C@@H](O)[C@@H](O)CO [Erythritol]
- retention time on BEH HILIC column [3, 6]: 2.08 min
- collision cross section [2]: 128.38 Å²

SMILES: N[C@@H](CCC(=O)N[C@@H](CS)C(=O)NCC(=O)O)C(=O)O [Glutathione]
- retention time on BEH HILIC column [3, 5]: 9.37 min
- retention time on BEH HILIC column [3, 6]: 9.46 min
- collision cross section [1]: 166.5 Å²
- collision cross section [4]: 166.01 Å²

SMILES: Nc1nc(=O)c2[nH]cnc2[nH]1 [Guanine]
- retention time on BEH HILIC column [3, 5]: 3.65 min
- retention time on BEH HILIC column [3, 6]: 3.62 min
- collision cross section [1]: 125.12 Å²
- collision cross section [4]: 128.49 Å²

SMILES: Oc1ncnc2nc[nH]c12 [Hypoxanthine]
- retention time on BEH HILIC column [3, 5]: 2.31 min
- retention time on BEH HILIC column [3, 6]: 2.28 min
- collision cross section [1]: 121.62 Å²
- collision cross section [4]: 125.05 Å²

SMILES: O=C(O)Cc1c[nH]c2ccccc12 [Indoleacetic acid]
- retention time on BEH HILIC column [3, 5]: 0.88 min
- retention time on BEH HILIC column [3, 6]: 0.9 min
- collision cross section [1]: 141.98 Å²
- collision cross section [4]: 137.05 Å²

SMILES: O=C(O)c1cc(=O)c2ccccc2[nH]1 [Kynurenic acid]
- retention time on BEH HILIC column [3, 5]: 4.13 min
- retention time on BEH HILIC column [3, 6]: 4.01 min
- collision cross section [1]: 134.49 Å²
- collision cross section [4]: 135.88 Å²

SMILES: N=C(N)NCCC[C@H](N)C(=O)O [L-arginine]
- retention time on BEH HILIC column [3, 5]: 11.1 min
- retention time on BEH HILIC column [3, 6]: 10.8 min
- collision cross section [1]: 136.62 Å²
- collision cross section [4]: 136.63 Å²

SMILES: N[C@@H](CCSC[C@H](N)C(=O)O)C(=O)O [L-cystathionine]
- retention time on BEH HILIC column [3, 5]: 11.2 min
- retention time on BEH HILIC column [3, 6]: 11.3 min
- collision cross section [1]: 142.48 Å²
- collision cross section [4]: 144 Å²

SMILES: N[C@@H](CSSC[C@H](N)C(=O)O)C(=O)O [L-cystine]
- retention time on BEH HILIC column [3, 5]: 12 min
- retention time on BEH HILIC column [3, 6]: 11.4 min
- collision cross section [1]: 143.16 Å²
- collision cross section [4]: 146.43 Å²

SMILES: N[C@@H](Cc1cnc[nH]1)C(=O)O [L-histidine]
- retention time on BEH HILIC column [3, 5]: 12.7 min
- retention time on BEH HILIC column [3, 6]: 12.6 min
- collision cross section [1]: 129.28 Å²
- collision cross section [4]: 131.08 Å²

SMILES: CC[C@H](C)[C@H](N)C(=O)O [L-isoleucine]
- retention time on BEH HILIC column [3, 5]: 6.68 min
- retention time on BEH HILIC column [3, 6]: 6.47 min
- collision cross section [1]: 129.46 Å²
- collision cross section [4]: 133.13 Å²

SMILES: CC(C)C[C@H](N)C(=O)O [L-leucine]
- retention time on BEH HILIC column [3, 5]: 6.46 min
- retention time on BEH HILIC column [3, 6]: 6.26 min
- collision cross section [1]: 131.1 Å²
- collision cross section [4]: 131.44 Å²
